Holding throughout (type): physicochemical
Series [1] can be described thus: Hygroscopicity study by dynamic vapor sorption (DVS). The following applies: 25° C., RH 10% per step, 10 min per step. The procedure: Dynamic Vapor Sorption DVS
Model: DVS intrinsic (SMS, British);
Method: 25° C., relative humidity is stepped up at a rate of 10%, the judgment standard is change in moisture content is <0.02% over a 10-minute period.
Dynamic vapor sorption (DVS) experiment are performed for crystal form A in Example 2 to obtain DVS curves under the following conditions: the temperature is 25° C., the relative humidity (RH) is stepped up from RH 0 to RH 90% at a rate of RH 10% per step, with 10 min for each step to reach equilibrium.

Series [2] can be described thus: High-humidity stability 1 of the crystal form (XRPD comparison with day 0). To be noted: 92.5% RH, 25° C., XRPD vs day 0. The method, then:
(3) High-humidity stability 1: the test sample is placed in an environment having a humidity of 92.5% RH and a temperature of 25° C. for 5 days and 10 days, respectively, to test the stability of the crystal form, which are compared with XRPD pattern of the crystal form A on day 0.
(3) High-humidity stability 1: by referring to the same method of high-humidity stability test 1 for crystal A, the test sample is placed in an environment having a humidity of 92.5% RH and a temperature of 25° C. for 5 days to test the stability of the crystal form, which are compared with XRPD pattern of the crystal form I on day 0.

Series [3] is described as follows: High-temperature stability of the crystal form (XRPD comparison with day 0). The following applies: 60° C., XRPD vs day 0. The method, then: (2) High-temperature stability: the test sample is placed at a temperature of 60° C. for 5 days and 10 days, respectively, to test the stability of the crystal form, which are compared with XRPD pattern of the crystal form A on day 0.
(2) High-temperature stability: by referring to the same method of high-temperature stability test for crystal A, the test sample is placed at a temperature of 60° C. for 5 days to test the stability of the crystal form, which is compared with XRPD pattern of the crystal form I on day 0.

Series [4] in a line: High-humidity stability 2 of the crystal form (XRPD comparison with day 0). The following applies: 75% RH, 40° C., XRPD vs day 0. The method, then:
(4) High-humidity stability 2: the test sample is placed in an environment having a humidity of 75% RH and a temperature of 40° C. for 5 days and 10 days, respectively, to test the stability of the crystal form, which are compared with XRPD pattern of the crystal form A on day 0.
(4) High-humidity stability 2: by referring to the same method of high-humidity stability test 2 for crystal A, the test sample is placed in an environment having a humidity of 75% RH and a temperature of 40° C. for 5 days to test the stability of the crystal form, which are compared with XRPD pattern of the crystal form I on day 0.

Series [5] in a line: Light stability of the crystal form (XRPD comparison with day 0). To be noted: 25° C., 4500 Lux, XRPD vs day 0. The method, then: (1) Light stability: the test sample is placed in an environment having a temperature of 25° C. and a light condition of 4500 Lux for 5 days and 10 days, respectively, to test the stability of the crystal form, which are compared with XRPD pattern of the crystal form A on day 0.
(1) Light stability: by referring to the same method of light stability test for crystal A, the test sample is placed in an environment having a temperature of 25° C. and a light condition of 4500 Lux for 5 days to test the stability of the crystal form, which is compared with XRPD pattern of the crystal form I on day 0.

For `NC(=O)C(c1ccccc1)(c1ccc(F)cc1)c1ccc(F)cc1` [crystal form A, 2,2-bis(4-fluorophenyl)-2-phenylacetamide], the “weight change in each step of 10 min” value in series [1] is listed as “less than 0.02%”. In addition, the “high-humidity stability 1 of the crystal form” value in series [2] (5 days and 10 days) is recorded as “good high-humidity stability”. Besides, the “high-temperature stability of the crystal form” value in series [3] (5 days and 10 days) is “good high-temperature stability”. The “high-humidity stability 2 of the crystal form” value in series [4] (5 days and 10 days) is “good high-humidity stability”. Further, the “light stability of the crystal form” value in series [5] (5 days and 10 days) is “good light stability”.
In the case of `NC(=O)C(c1ccccc1)(c1ccc(F)cc1)c1ccc(F)cc1` [crystal form I, 2,2-bis(4-fluorophenyl)-2-phenylacetamide, reference compound], the “high-humidity stability 1 of the crystal form” value in series [2] (5 days) was “unstable under high humidity and easily transforms into crystal form A”. In series [3] (5 days), the “high-temperature stability of the crystal form” value was “unstable under high temperatures and easily transforms into crystal form A”. Moreover, the “high-humidity stability 2 of the crystal form” value in series [4] (5 days) was “unstable under high humidity and easily transforms into crystal form A”. For the same compound, in series [5] (5 days), the “light stability of the crystal form” value is “unstable under lights and easily transforms into crystal form A”.

The values above are taken from patent US12286389B2, “Crystalline form a of 2, 2-bis(4-fluorophenyl)-2-phenylacetamide and preparation method therefor and application thereof” (SHENZHEN RENTAI PHARMATECH LTD., priority 2019, dated 2025).
